Among the data in US20250011285A1, “CYP11A1 INHIBITORS” (ORION CORPORATION, priority 2021, published 2025) are IC50 values, retold here.

Each structure is given as a SMILES string. Some results are limits rather than exact numbers.

The target in the experiment is T1, CYP11A1 (Homo sapiens, UniProt P05108).
T1 construct: human H295R adrenocortical carcinoma cell line was used as source of enzyme; endogenous in cells; host or cells: H295R human adrenocortical carcinoma cells
T1 sequence (P05108 40-521): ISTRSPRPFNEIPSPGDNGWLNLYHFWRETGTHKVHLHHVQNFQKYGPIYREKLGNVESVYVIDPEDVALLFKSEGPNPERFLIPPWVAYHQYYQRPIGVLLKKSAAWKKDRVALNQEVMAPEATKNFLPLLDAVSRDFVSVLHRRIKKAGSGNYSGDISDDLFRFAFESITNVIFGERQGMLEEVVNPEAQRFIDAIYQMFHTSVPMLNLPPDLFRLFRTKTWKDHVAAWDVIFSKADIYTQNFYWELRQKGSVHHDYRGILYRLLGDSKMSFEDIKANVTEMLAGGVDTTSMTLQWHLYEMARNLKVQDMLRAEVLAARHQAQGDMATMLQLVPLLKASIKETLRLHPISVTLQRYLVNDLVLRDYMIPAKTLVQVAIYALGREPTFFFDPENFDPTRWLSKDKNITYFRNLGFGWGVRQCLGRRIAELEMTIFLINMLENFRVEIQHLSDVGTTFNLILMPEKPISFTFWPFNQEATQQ
The experiment in a line: CYP11A1 inhibition, isocaproic acid release assay (IARA) in H295R cells. The class given is cell-based. Particulars: human H295R adrenocortical carcinoma cells treated three days, 3 nM [24,25-3H]-labelled cholesterol, 1% DMSO; read-out: IC50 on CYP11A1 inhibition (Group). As to the method:
The ability of the test compounds to inhibit conversion of cholesterol to pregnenolone and isocaproic acid was measured by modification of isocaproic acid release assay (IARA) described by Ruangwises et al. (Biology of Reproduction 1991; 45(1):143-50) except that human H295R adrenocortical carcinoma cell line was used as source of enzyme and extraction was done with dextran-coated charcoal suspension (Isomaa, V. et al., Endocrinology 1982; 111(3):833-843). […] To determine the half maximal inhibitory concentration (IC50) of the test compounds on CYP11A1 inhibition, the cells were treated for three days with increasing concentrations of the test compounds in the presence of 3 nM [24,25-3H]-labelled cholesterol (American Radiolabelled Chemicals).
The final DMSO concentration was 1%. Cell culture medium was extracted with dextran-coated charcoal suspension and the radiolabelled isocaproic acid was determined by mixing 100 μl of supernatant fraction in 200 μl of scintillation fluid (OptiPhase SuperMix, Perkin Elmer). Radioactivity was measured using a Microbeta scintillation counter (1450 MicroBeta Trilux, Wallac). All the test compounds were studied at 10 concentrations in duplicates.

Broadly, the IC50 is the concentration that inhibits the measured activity by half.

For the compound `CS(=N)(=O)c1ccc(COc2ccc(CN3Cc4ccccc4C3)c3cccnc23)cc1` (stereo not shown) [Compound 44, Imino(4-(((5-(isoindolin-2-ylmethyl)quinolin-8-yl)oxy)methyl)phenyl)(methyl)-λ^6-sulfanone], the concentration for half-maximal inhibition (IC50) was under 150 nM.

For the compound `CN(C)C(=O)c1ccc(COc2ccc(CN3Cc4ccccc4C3)cc2OC(F)(F)F)cc1` [Compound 29, 4-((4-(Isoindolin-2-ylmethyl)-2-(trifluoromethoxy)phenoxy)methyl)-N,N-dimethylbenzamide], the concentration for half-maximal inhibition (IC50) was 351 to 1500 nM.

Turning to `CN(C)C(=O)c1ccc(COc2ccc(CN3Cc4ccccc4C3)c(F)c2)cc1` [Compound 24, 4-((3-Fluoro-4-(isoindolin-2-ylmethyl)phenoxy)methyl)-N,N-dimethylbenzamide], the concentration for half-maximal inhibition (IC50) lay within 351 to 1500 nM.

In the case of `CN(C)C(=O)c1ccc(COc2ccc(CN3Cc4ccccc4C3)c3cccnc23)cc1` [Compound 41, 4-(((5-(Isoindolin-2-ylmethyl)quinolin-8-yl)oxy)methyl)-N,N-dimethyl-benzamide], the half-inhibitory concentration (IC50) was under 150 nM.

`COCc1cc(CN2Cc3ccccc3C2)ccc1OCc1ccc(C(=O)N(C)C)cc1` [Compound 10, 4-((4-(Isoindolin-2-ylmethyl)-2-(methoxymethyl)phenoxy)methyl)-N,N-di-methylbenzamide]: the half-maximal inhibitory concentration (IC50) is 151 to 350 nM.

Turning to `CS(=N)(=O)c1ccc(COc2ccc(CN3Cc4ccccc4C3)c3ocnc23)cc1` (stereo not shown) [Compound 45, Imino(4-(((7-(isoindolin-2-ylmethyl)benzo[d]oxazol-4-yl)oxy)methyl)phenyl)-(methyl)-λ^6-sulfanone], the half-maximal inhibitory concentration (IC50) was in the range of 351 to 1500 nM.

For the compound `CS(=O)(=O)N1CCC(COc2ccc(CN3Cc4ccccc4C3)cc2C(F)(F)F)CC1` [Compound 56], the concentration for half-maximal inhibition (IC50) was 151 to 350 nM.

For the compound `CN(C)C(=O)c1ccc(COc2ccc(CN3Cc4ccccc4C3)cc2O)cc1` [Compound 5, 4-((2-Hydroxy-4-(isoindolin-2-ylmethyl)phenoxy)methyl)-N,N-dimethyl-benzamide], the IC50 is 151 to 350 nM.

For the compound `CS(=O)(=O)c1ccc(COc2ccc(CN3Cc4ccccc4C3)cc2C#N)cc1` [Compound 16, 5-(Isoindolin-2-ylmethyl)-2-((4-(methylsulfonyl)benzyl)oxy)benzonitrile], the IC50 is 151 to 350 nM.

In the case of `CN(C)C(=O)c1ccc(COc2ccc(CN3Cc4ccccc4C3)cc2OCC(N)=O)cc1` [Compound 14, 4-((2-(2-Amino-2-oxoethoxy)-4-(isoindolin-2-ylmethyl)phenoxy)methyl)-N,N-dimethylbenzamide], the half-maximal inhibitory concentration (IC50) is under 150 nM.

Regarding `CN(C)C(=O)c1ccc(COc2ccc(CN3Cc4ccccc4C3)cc2C#N)cc1` [Compound 6, 4-((2-Cyano-4-(isoindolin-2-ylmethyl)phenoxy)methyl)-N,N-dimethylbenzamide], the IC50 is under 150 nM.

Take `CS(=O)(=O)N1CCC(COc2ccc(CN3Cc4ccccc4C3)c3cccnc23)CC1` [Compound 51, 5-(Isoindolin-2-ylmethyl)-8-((1-(methylsulfonyl)piperidin-4-yl)methoxy)-quinoline]: the IC50 was under 150 nM.

`COc1cc(CN2Cc3ccc(SC)cc3C2)ccc1OCc1ccc(C(=O)N(C)C)cc1` [Compound 34, 4-((2-Methoxy-4-((5-(methylthio)isoindolin-2-yl)methyl)phenoxy)methyl)-N,N-dimethylbenzamide]: the half-inhibitory concentration (IC50) was under 150 nM.

For `COC(=O)c1ccc(COc2ccc(CN3Cc4ccccc4C3)cc2)cc1` [Compound 2, Methyl 4-((4-(isoindolin-2-ylmethyl)phenoxy)methyl)benzoate], the IC50 is 351 to 1500 nM.

For `CS(=O)(=O)N1CCC(COc2ccc(CN3Cc4ccccc4C3)c3ncoc23)CC1` [Compound 46, 4-(Isoindolin-2-ylmethyl)-7-((1-(methylsulfonyl)piperidin-4-yl)methoxy)-benzo[d]oxazole], the IC50 was in the range of 351 to 1500 nM.

Consider `CN(C)C(=O)c1ccc(COc2ccc(CN3Cc4ccccc4C3)cc2OCC(F)(F)F)cc1` [Compound 11, 4-((4-(Isoindolin-2-ylmethyl)-2-(2,2,2-trifluoroethoxy)phenoxy)methyl)-N,N-dimethylbenzamide], for which the IC50 is 151 to 350 nM.

On to `CS(=O)(=O)N1CCC(COc2ccc(CN3Cc4ccccc4C3)cc2C#N)CC1` [Compound 19, 5-(Isoindolin-2-ylmethyl)-2-((1-(methylsulfonyl)piperidin-4-yl)methoxy)-benzonitrile], for which the IC50 was under 150 nM.

Consider `COc1cc(CN2Cc3ccccc3C2)cc(F)c1OCc1ccc(C(=O)N(C)C)cc1` [Compound 28, 4-((2-Fluoro-4-(isoindolin-2-ylmethyl)-6-methoxyphenoxy)methyl)-N,N-di-methylbenzamide], for which the IC50 fell in the range of 351 to 1500 nM.

Consider `CN(C)C(=O)c1ccc(COc2ccc(CN3Cc4ccccc4C3)cc2NS(C)(=O)=O)cc1` [Compound 53, 4-((4-(Isoindolin-2-ylmethyl)-2-(methylsulfonamido)phenoxy)methyl)-N,N-dimethylbenzamide], for which the 50% inhibitory concentration (IC50) was 351 to 1500 nM.

Consider `COCc1cc(CN2Cc3ccccc3C2)ccc1OCC1CCN(S(C)(=O)=O)CC1` [Compound 22, 2-(3-(Methoxymethyl)-4-((1-(methylsulfonyl)piperidin-4-yl)methoxy)benzyl)-isoindoline], for which the IC50 was under 150 nM.

Turning to `CN(C)C(=O)c1ccc(COc2ccc(CN3Cc4ccccc4C3=O)cc2OC(F)(F)F)cc1` [Compound 30, N,N-Dimethyl-4-((4-((1-oxoisoindolin-2-yl)methyl)-2-(trifluoromethoxy)-phenoxy)methyl)benzamide], the IC50 was 351 to 1500 nM.

Regarding `COC(=O)/C=C/c1ccc(COc2ccc(CN3Cc4ccccc4C3)cc2OC)cc1` [Compound 9, Methyl (E)-3-(4-((4-(isoindolin-2-ylmethyl)-2-methoxyphenoxy)methyl)phenyl)acrylate], the IC50 lay within 351 to 1500 nM.
